Laboratory results as given in patent publication US20250230138A1, “COMPOUNDS HAVING A T-STRUCTURE FORMED BY AT LEAST FOUR CYCLES FOR USE IN THE TREATMENT OF CANCER AND OTHER INDICATIONS” (TheRas, Inc., priority 2022, published 2025).
Read-outs that look alike come from different tables or passages of the source.

Experiments:
pAKT in BT474 cells = assay: Cell-based pAKT HTRF assay in BT474 cells; conditions: BT474 cells, 4 hr incubation, Compounds 10-999, read-out: pAKT inhibition IC50 in BT474 cells
How it was run: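 BT474 cells in DMEM/10% FBS were treated the day after seeding with a 9-point, 3-fold compound series from 3 μM (0.25% DMSO) for 4 hr. Lysates were mixed with d2 and Eu cryptate anti-pAKT antibodies and incubated 4-24 h at room temperature. HTRF was read with excitation at 320 nm and emission at 615 nm.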

[1] = biological target: Cys242 in human PIK3CA (157-299) (Homo sapiens (Human), UniProt P42336); assay: Covalent modification assay using MALDI-TOF MS; type: biochemical; conditions: 4 h reaction time point; 1 μM protein target, 1:5 protein to compound ratio (compounds 853-1279)
Cys242 in human PIK3CA (157-299), sequence (P42336 157-299): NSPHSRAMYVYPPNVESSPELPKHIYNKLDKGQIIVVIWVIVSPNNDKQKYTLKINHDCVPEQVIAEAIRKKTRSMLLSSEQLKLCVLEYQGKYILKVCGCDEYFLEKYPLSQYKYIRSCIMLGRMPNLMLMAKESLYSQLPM
How it was run: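 PIK3CA (157-299) at 3.33 μM or 1 μM in 20 mM HEPES, 150 mM NaCl, 2 mM MgCl2, pH 7.3 was incubated with compound (from 10 mM DMSO stocks) in the dark at room temperature for 15 min, 30 min, 2 h or 4 h. Linear-mode MALDI-TOF peak heights gave percent modification.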

| SMILES | IC50 (pAKT in BT474 cells) [nM] | % of modification [1] | IC50 (pAKT in BT474 cells; Homo sapiens, BT-474) [nM] |
| --- | --- | --- | --- |
| C=CC(=O)N1Cc2cc(-c3nc(-c4ccc5nncn5c4)c4ccsc4c3-c3c(F)cc(F)cc3OCCO)nn2CC1C (stereo not drawn) [Compound 903] | < 100 | A (percent of modification of PIK3CA protein ≥75%) | – |
| C=CC(=O)N1Cc2cc(-c3nc(-c4ccc5c(c4)CNC5=O)c4ccsc4c3-c3c(F)cc(F)cc3OCCO)nn2CC1C (stereo not drawn) [Compound 904] | < 100 | A (percent of modification of PIK3CA protein ≥75%) | – |
| C=CC(=O)N1Cc2cc(-c3nc(-c4ccc5c(c4)C(=O)N(C)C5)c4ccsc4c3-c3c(F)cc(F)cc3OC)nn2[C@@H](C)C1 [Compound 905] | 100 to 1000 | C (25%≤percent of modification <50%) | – |
| C=CC(=O)N1Cc2cc(-c3nc(-c4ccc5c(c4)CCNC5=O)c4ccsc4c3-c3c(F)cc(F)cc3OCCO)nn2CC1C (stereo not drawn) [Compound 907] | < 100 | A (percent of modification of PIK3CA protein ≥75%) | – |
| C=CC(=O)N1CCn2nc(-c3nc(-c4ccc5c(cnn5C)c4)c4ccsc4c3-c3c(F)cc(F)cc3OCCO)cc2[C@H]1C [Compound 908, 1-((R)-2-((S)-7-(2,4-difluoro-6-(2-hydroxyethoxy)phenyl)-4-(1-methyl-1H-indazol-5-yl)thieno[3,2-c]pyridin-6-yl)-4-methyl-6,7-dihydropyrazolo[1,5-a]pyrazin-5(4H)-yl)prop-2-en-1-one] | – | A (percent of modification of PIK3CA protein ≥75%) | < 100 |
| C=CC(=O)N1CCn2nc(-c3nc(-c4ccc5cnncc5c4)c4ccsc4c3-c3c(F)cc(F)cc3OCCO)cc2C1C (stereo not drawn) [Compound 909] | < 100 | A (percent of modification of PIK3CA protein ≥75%) | – |
| C=CC(=O)N1Cc2cc(-c3nc(-c4ccc5c(c4)CNC5=O)c4ccsc4c3-c3c(F)cc(F)cc3OC)nn2C(C)C1 (stereo not drawn) [Compound 910] | 100 to 1000 | B (50%<percent of modification <75%) | – |
| C=CC(=O)N1Cc2cc(-c3nc(-c4ccc5c(c4)CN(C)C5=O)c4ccsc4c3-c3c(F)cc(F)cc3OC)nn2C(C)C1 (stereo not drawn) [Compound 911] | 100 to 1000 | B (50%<percent of modification <75%) | – |
| C=CC(=O)N1CCn2nc(-c3nc(-c4cnc5cn(C)nc5c4)c4ccsc4c3-c3c(F)cc(F)cc3OCCOC)cc2C1C (stereo not drawn) [Compound 912] | < 100 | A (percent of modification of PIK3CA protein ≥75%) | – |
| C=CC(=O)N1CCn2nc(-c3nc(-c4cnc5cn(C)nc5c4)c4ccsc4c3-c3c(F)cc(F)cc3OCCO)cc2C1C (stereo not drawn) [Compound 913] | < 100 | A (percent of modification of PIK3CA protein ≥75%) | – |
| C=CC(=O)N1CCn2nc(-c3nc(-c4ccc5c(=O)n(C)ncc5c4)c4ccsc4c3-c3c(F)cc(F)cc3OCCOC)cc2C1C (stereo not drawn) [Compound 914] | < 100 | A (percent of modification of PIK3CA protein ≥75%) | – |
| C=CC(=O)N1CCn2nc(-c3nc(-c4ccc5ncn(C)c(=O)c5c4)c4ccsc4c3-c3c(F)cc(F)cc3OCCOC)cc2C1C (stereo not drawn) [Compound 915] | < 100 | A (percent of modification of PIK3CA protein ≥75%) | – |
| C=CC(=O)N1CCn2nc(-c3nc(-c4cnc5c(c4)CN(C)C5=O)c4ccsc4c3-c3c(F)cc(F)cc3OCCO)cc2C1C (stereo not drawn) [Compound 924] | < 100 | A (percent of modification of PIK3CA protein ≥75%) | – |
| C=CC(=O)N1CCn2nc(-c3nc(-c4ccc5ncn(C)c(=O)c5c4)c4ccsc4c3-c3c(F)cc(F)cc3OCCOC)cc2C1C (stereo not drawn) [Compound 925] | < 100 | A (percent of modification of PIK3CA protein ≥75%) | – |
| C=CC(=O)N1CCn2nc(-c3nc(-c4ccc5c(c4)CNC(=O)C5)c4ccsc4c3-c3c(F)cc(F)cc3OCCOC)cc2C1C (stereo not drawn) [Compound 926] | < 100 | A (percent of modification of PIK3CA protein ≥75%) | – |
| C=CC(=O)N1Cc2cc(-c3nc(-c4ccc5c(c4)CNC(=O)C5)c4ccsc4c3-c3c(F)cc(F)cc3OCCO)nn2CC1C (stereo not drawn) [Compound 927] | < 100 | A (percent of modification of PIK3CA protein ≥75%) | – |
| C=CC(=O)N1CCn2nc(-c3nc(-c4ccc5cnn(C)c(=O)c5c4)c4ccsc4c3-c3c(F)cc(F)cc3OCCOC)cc2C1C (stereo not drawn) [Compound 928] | < 100 | A (percent of modification of PIK3CA protein ≥75%) | – |
| C=CC(=O)N1CCn2nc(-c3nc(-c4cnc5c(c4)CN(C)CC5)c4ccsc4c3-c3c(F)cc(F)cc3OCCOC)cc2C1C (stereo not drawn) [Compound 929] | < 100 | A (percent of modification of PIK3CA protein ≥75%) | – |

| SMILES | IC50 (pAKT in BT474 cells) [nM] | % of modification [1] | IC50 (pAKT in BT474 cells; Homo sapiens, BT-474) [nM] |
| --- | --- | --- | --- |
| C=CC(=O)N1CCn2nc(-c3nc(-c4ccc(N5CCN(C)CC5)nc4)c4ccsc4c3-c3c(F)cc(F)cc3OCCOC)cc2C1C (stereo not drawn) [Compound 930] | < 100 | A (percent of modification of PIK3CA protein ≥75%) | – |
| C=CC(=O)N1CCn2nc(-c3nc(-c4ccc5c(c4)CNC(=O)C5)c4ccsc4c3-c3c(F)cc(F)cc3OCCOC)cc2C1C (stereo not drawn) [Compound 931] | < 100 | A (percent of modification of PIK3CA protein ≥75%) | – |
| C=CC(=O)N1CCc2ncc(-c3nc(-c4ccc5nncn5c4)c4ccsc4c3-c3c(F)cc(F)cc3OCCOC)cc2C1 [Compound 941] | < 100 | A (percent of modification of PIK3CA protein ≥75%) | – |
| C=CC(=O)N1CCc2ncc(-c3nc(-c4cn(C)cn4)c4ccsc4c3-c3c(F)cc(F)cc3OCCOC)cc2C1 [Compound 943] | < 100 | A (percent of modification of PIK3CA protein ≥75%) | – |
| C=CC(=O)N1CCc2ncc(-c3nc(-c4ccc5nn(C)cc5c4)c4ccsc4c3-c3c(F)cc(F)cc3OCCOC)cc2C1 [Compound 945] | < 100 | A (percent of modification of PIK3CA protein ≥75%) | – |
| C=CC(=O)N1Cc2cc(-c3nc(-c4ccc5c(c4)CN(C)C5=O)c4ccsc4c3-c3c(F)cc(F)cc3OC)nn2C(C)C1 (stereo not drawn) [Compound 946] | < 100 | A (percent of modification of PIK3CA protein ≥75%) | – |
| C=CC(=O)N1CCc2nc(-c3nc(-c4ccc5nn(C)cc5c4)c4ccsc4c3-c3c(F)cc(F)cc3OCCOC)sc2C1 [Compound 947] | < 100 | A (percent of modification of PIK3CA protein ≥75%) | – |
| C=CC(=O)N1Cc2cc(-c3nc(-c4ccnnc4)c4ccsc4c3-c3c(F)cc(F)cc3OCCOC)nn2CC1C (stereo not drawn) [Compound 948] | < 100 | A (percent of modification of PIK3CA protein ≥75%) | – |
| C=CC(=O)N1Cc2cc(-c3nc(N4CCc5c(cnn5C)C4)c4ccsc4c3-c3c(F)cc(F)cc3OCCOC)nn2CC1C (stereo not drawn) [Compound 949] | < 100 | A (percent of modification of PIK3CA protein ≥75%) | – |
| C=CC(=O)N1CCc2ccc(-c3nc(-c4ccc5c(c4)CNC5=O)c4ccsc4c3-c3c(F)cc(F)cc3OCCO)cc2C1 [Compound 950] | 100 to 1000 | D (percent of modification <25%) | – |
| C=CC(=O)N1CCn2nc(-c3nc(-c4cnc(N5CCN(C)CC5)nc4)c4ccsc4c3-c3c(F)cc(F)cc3OCCOC)cc2[C@H]1C [Compound 951, 1-((R)-2-((S)-7-(2,4-difluoro-6-(2-methoxyethoxy)phenyl)-4-(2-(4-methylpiperazin-1-yl)pyrimidin-5-yl)thieno[3,2-c]pyridin-6-yl)-4-methyl-6,7-dihydropyrazolo[1,5-a]pyrazin-5(4H)-yl)prop-2-en-1-one] | – | A (percent of modification of PIK3CA protein ≥75%) | < 100 |
| C=CC(=O)N1CCn2nc(-c3nc(-c4ccc5c(c4)C(=O)N(C)CC5)c4ccsc4c3-c3c(F)cc(F)cc3OCCOC)cc2[C@H]1C [Compound 953] | < 100 | A (percent of modification of PIK3CA protein ≥75%) | – |
| C=CC(=O)N1CCn2nc(-c3nc(-c4ccc5c(c4)C(=O)NCC5)c4ccsc4c3-c3c(F)cc(F)cc3OCCO)cc2[C@H]1C [Compound 955] | < 100 | A (percent of modification of PIK3CA protein ≥75%) | – |
| C=CC(=O)N1CCn2nc(-c3nc(-c4ccc5c(c4)C(=O)NCC5)c4ccsc4c3-c3c(F)cc(F)cc3OCCOC)cc2[C@H]1C [Compound 956] | < 100 | A (percent of modification of PIK3CA protein ≥75%) | – |
| C=CC(=O)N1CCn2nc(-c3nc(-c4ccc(N(C)C)nc4)c4ccsc4c3-c3c(F)cc(F)cc3OCCO)cc2[C@@H]1C [Compound 957, 1-((S)-2-((S)-7-(2,4-difluoro-6-(2-hydroxyethoxy)phenyl)-4-(6-(dimethylamino)pyridin-3-yl)thieno[3,2-c]pyridin-6-yl)-4-methyl-6,7-dihydropyrazolo[1,5-a]pyrazin-5(4H)-yl)prop-2-en-1-one] | – | A (percent of modification of PIK3CA protein ≥75%) | < 100 |
| C=CC(=O)N1CCn2nc(-c3nc(-c4ccnc(N(C)C)c4)c4ccsc4c3-c3c(F)cc(F)cc3OCCO)cc2C1C (stereo not drawn) [Compound 959] | < 100 | A (percent of modification of PIK3CA protein ≥75%) | – |
| C=CC(=O)N1CCn2nc(-c3nc(-c4ccnc(N(C)C)c4)c4ccsc4c3-c3c(F)cc(F)cc3OCCO)cc2C1C (stereo not drawn) [Compound 960] | < 100 | A (percent of modification of PIK3CA protein ≥75%) | – |
| C=CC(=O)N1CCn2nc(-c3nc(-c4cnc5c(c4)CNC5=O)c4ccsc4c3-c3c(F)cc(F)cc3OCCO)cc2C1C (stereo not drawn) [Compound 961] | 100 to 1000 | A (percent of modification of PIK3CA protein ≥75%) | – |
